Measurements from publication PMC9000735, “In Vitro Alpha-Glucosidase Inhibitory Activity and the Isolation of Luteolin from the Flower of Gymnanthemum amygdalinum (Delile) Sch. Bip ex Walp” (Molecules, 2022).
Read-outs that look alike come from different tables or passages of the source.

Experiments:
α-glucosidase = biological target: T1, α-glucosidase (Saccharomyces cerevisiae, UniProt P53341); assay: biochemical; conditions: for IC50: mean ± SD, n = 3, linear regression
T1 construct: purchased Sigma-Aldrich G5003
Experimental: A specific spray reagent, citroborate (5 g citric acid, 5 g boric acid, and 100 mL ethanol), and 10% (v/v) H2SO4 in a MeOH solution were used to identify flavonoids and other compounds. Additionally, during extraction and separation, the entire solvents were distilled before use, making them of technical grade.
Alpha-glucosidase inhibition was assessed using the adopted method with slight modifications. Phosphate buffer solution (36 μL), a sample solution with different concentrations ([…]), and pNPG substrate with 6 mM concentration (17 μL) were successively added to 96 microplate wells. The incubation of this mixture was performed at 37 °C for 5 min. In each well, 17 μL of alpha-glucosidase solution at 0.2 U/mL was added to obtain a total volume of […], which was followed by incubation at 37 °C for 15 min. Furthermore, the initial reaction was brought to completion by the addition of Na2CO3 solution (100 μL) at 200 mM. […] Percentage inhibition was used to express the inhibitory activity of alpha-glucosidase, while the calculation followed the formula below:
Inhibition percentage (%) = (B1–B2)/B1 × 100%.
B1 = Blank absorbance * − control of blank absorbance **
B2 = Sample absorbance − control of sample absorbance ***
The IC50 was calculated using a linear regression equation (y = a + bx) in which the sample concentration was represented on the x-axis and the percentage inhibition was represented on the y-axis.

alpha-glucosidase = tested on: alpha-glucosidase; parameters: method as in PMID 35215317; conditions: cited from earlier work

T1 sequence (P53341 whole entry): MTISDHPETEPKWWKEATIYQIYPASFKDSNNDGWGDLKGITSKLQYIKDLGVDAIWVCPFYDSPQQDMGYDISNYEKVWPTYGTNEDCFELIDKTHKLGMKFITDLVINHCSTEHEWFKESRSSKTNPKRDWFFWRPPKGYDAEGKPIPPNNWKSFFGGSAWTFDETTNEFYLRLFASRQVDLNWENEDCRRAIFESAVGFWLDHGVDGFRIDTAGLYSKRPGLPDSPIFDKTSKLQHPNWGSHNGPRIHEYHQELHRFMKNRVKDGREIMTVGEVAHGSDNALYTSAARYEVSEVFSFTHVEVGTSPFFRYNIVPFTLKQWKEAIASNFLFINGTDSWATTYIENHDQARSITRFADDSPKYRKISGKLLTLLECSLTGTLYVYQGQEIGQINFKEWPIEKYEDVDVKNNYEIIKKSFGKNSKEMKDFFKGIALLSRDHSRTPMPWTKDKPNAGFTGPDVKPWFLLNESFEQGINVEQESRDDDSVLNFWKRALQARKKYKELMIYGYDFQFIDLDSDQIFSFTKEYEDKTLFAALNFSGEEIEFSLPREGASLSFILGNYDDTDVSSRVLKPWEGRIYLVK

Structure (SMILES)	inhibition at 100 µg/mL (α-glucosidase)	inhibition at 200 µg/mL (α-glucosidase)	inhibition at 100 µg/mL (α-glucosidase; read-out: Inhibition (in %))	inhibition at 200 µg/mL (α-glucosidase; read-out: Inhibition (in %))	inhibition mechanism type (alpha-glucosidase)	IC50 (α-glucosidase)
C[C@H]1O[C@H](O[C@H]2[C@H](O)[C@@H](O)[C@@H](O[C@H]3[C@H](O)[C@@H](O)C(O)O[C@@H]3CO)O[C@@H]2CO)[C@H](O)[C@@H](O)[C@@H]1N[C@H]1C=C(CO)[C@@H](O)[C@H](O)[C@H]1O (stereo partly shown) [Acarbose, acarbose]	42.13 ± 0.12%	66 ± 1.11%	43.1 ± 0.92%	66.8 ± 2.11%		
O=c1cc(-c2ccc(O)c(O)c2)oc2cc(O)cc(O)c12 [Compound 1, 2-(3,4-dihydroxyphenyl)-5,7-dihydroxy-4H-chromen-4-one]					non-competitive	22.8 µM
COc1c(-c2ccc(O)c(O)c2)oc2cc(O)cc(O)c2c1=O [Compound 2, 2-(3,4-dihydroxyphenyl)-5,7-dihydroxy-3-methoxy-4H-chromen-4-one]						126 µM
